Measurements: PubChem BioAssay (NCI)
Values after ≈ are worked out from the molar mass of the structure shown. Values joined by “and” are separate entries in the source; they are usually repeats but may differ in a detail not shown here. Equal values may be shown once.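 Exposure lasted 48 hours, with cells grown in 96-well plates and compounds tested at five concentrations. The concentration for 50% growth inhibition is given as GI50. TGI: total growth inhibition.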

Experiments:
Test in all cases: DTP human tumour cell line panel, 48 h
[1] = system: MDA-N
[2] = system: SK-OV-3 ovarian
[3] = system: M19-MEL melanoma
[4] = system: A498 renal
[5] = system: OVCAR-4 ovarian
[6] = system: NCI-H226 lung
[7] = system: HCT-116 colon
[8] = system: HOP-18 NSCLC
[9] = system: U251 CNS
[10] = system: HOP-62 NSCLC
[11] = system: SK-MEL-28 melanoma
[12] = system: OVCAR-5 ovarian
[13] = system: SNB-78 CNS
[14] = system: NCI/ADR-RES ovarian
[15] = system: HCT-15 colon
[16] = system: KM12 colon
[17] = system: HOP-92 NSCLC
[18] = system: SF-539 CNS
[19] = system: NCI-H522 lung
[20] = system: UACC-257 melanoma
[21] = system: ACHN renal
[22] = system: HS 578T breast
[23] = system: SW-620 colon
[24] = system: RPMI-8226 leukemia
[25] = system: PC-3 prostate
[26] = system: M14 melanoma
[27] = system: SF-268 CNS
[28] = system: MDA-MB-435
[29] = system: HL-60(TB) leukemia
[30] = system: BT-549 breast
[31] = system: 786-0 renal
[32] = system: SK-MEL-5 melanoma
[33] = system: MALME-3M melanoma
[34] = system: XF 498 CNS
[35] = system: UO-31 renal
[36] = system: UACC-62 melanoma
[37] = system: COLO 205 colon
[38] = system: A549 NSCLC
[39] = system: MOLT-4 leukemia
[40] = system: IGROV1 ovarian
[41] = system: SNB-19 CNS
[42] = system: OVCAR-8 ovarian
[43] = system: KM20L2 colon
[44] = system: RXF-631 renal
[45] = system: OVCAR-3 ovarian
[46] = system: LXFL 529 NSCLC
[47] = system: TK-10 renal
[48] = system: DMS 273 small cell lung
[49] = system: DU-145 prostate
[50] = system: NCI-H23 lung
[51] = system: NCI-H460 lung
[52] = system: DLD-1 colon
[53] = system: LOX IMVI melanoma
[54] = system: SR leukemia
[55] = system: K-562 leukemia
[56] = system: SNB-75 CNS
[57] = system: HT29 colon
[58] = system: CAKI-1 renal
[59] = system: RXF 393 renal
[60] = system: DMS 114 small cell lung
[61] = system: SK-MEL-2 melanoma
[62] = system: MCF7 breast
[63] = system: CCRF-CEM leukemia
[64] = system: EKVX NSCLC
[65] = system: SF-295 CNS
[66] = system: T-47D breast
[67] = system: HCC-2998 colon
[68] = system: SN12C renal

For `Cc1c(N)nc(C(CC(N)=O)NCC(N)C(N)=O)nc1C(=O)NC(C(=O)NC(C)C(O)C(C)C(=O)NC(C(=O)NCCc1nc(-c2nc(C(=O)NCCCNCCCCN)cs2)cs1)C(C)O)C(OC1OC(CO)C(O)C(O)C1OC1OC(CO)C(O)C(OC(N)=O)C1O)c1cnc[nH]1` (stereo not given), the GI50 [1] was 27.4 µg/mL (≈ 19 µM), the GI50 [2] was 8.67 µg/mL (≈ 6.02 µM) and the TGI [2] was > 10 µM. The TGI [3] was > 10 µM, the GI50 [4] was 18.5 µg/mL (≈ 12.8 µM) and the TGI [4] was > 10 µM. For the same compound, the TGI [5] was > 10 µM, the GI50 [6] was 9.65 µg/mL and 3.45 µg/mL and the GI50 [7] was 0.288 µg/mL and 1.04 µg/mL. The TGI [7] was 26.8 µg/mL and > 10 µM, the TGI [8] was > 10 µM and the GI50 [9] was 8.06 µg/mL (≈ 5.59 µM). For the same compound, the TGI [9] was > 10 µM, the GI50 [10] was 0.137 µg/mL (≈ 0.095 µM) and the GI50 [11] was 48 µg/mL (≈ 33.3 µM). The TGI [11] was > 10 µM, the GI50 [12] was 45.6 µg/mL (≈ 31.7 µM) and the TGI [12] was > 10 µM. The TGI [13] was > 10 µM, the GI50 [14] was 3.44 µg/mL and 1.4 µg/mL and the TGI [14] was 17 µg/mL (≈ 11.8 µM). For the same compound, the GI50 [15] was 1.92 µg/mL (≈ 1.33 µM), the TGI [15] was > 10 µM and the GI50 [16] was 40 µg/mL (≈ 27.7 µM). For the same compound, the TGI [16] was > 10 µM, the GI50 [17] was 3.38 µg/mL (≈ 2.35 µM) and the GI50 [18] was 0.21 µg/mL and 0.0169 µg/mL. For the same compound, the GI50 [19] was 7.11 µg/mL (≈ 4.94 µM), the TGI [19] was > 10 µM and the GI50 [20] was 86.1 µg/mL (≈ 59.8 µM). For the same compound, the TGI [20] was > 10 µM, the GI50 [21] was 0.182 µg/mL and 0.0425 µg/mL and the GI50 [22] was 5.69 µg/mL and 0.24 µg/mL. For the same compound, the TGI [22] was 38.4 µg/mL (≈ 26.6 µM), the GI50 [23] was 25.2 µg/mL (≈ 17.5 µM) and the TGI [23] was > 10 µM. The GI50 [24] was 13.3 µg/mL (≈ 9.2 µM), the TGI [24] was > 10 µM and the GI50 [25] was 15.3 µg/mL (≈ 10.6 µM). The GI50 [26] was 9.31 µg/mL (≈ 6.46 µM), the TGI [26] was > 10 µM and the GI50 [27] was 2.55 µg/mL and 0.324 µg/mL. For the same compound, the TGI [27] was 23.8 µg/mL and > 10 µM, the GI50 [28] was 15.9 µg/mL (≈ 11 µM) and the GI50 [29] was 11.8 µg/mL (≈ 8.2 µM). For the same compound, the GI50 [30] was 13.7 µg/mL (≈ 9.54 µM), the GI50 [31] was 0.895 µg/mL and 0.562 µg/mL and the TGI [31] was 19.4 µg/mL and > 10 µM. The GI50 [32] was 1.05 µg/mL and 0.164 µg/mL, the TGI [32] was 15.9 µg/mL and > 10 µM and the TGI [33] was > 10 µM. For the same compound, the TGI [34] was > 10 µM, the GI50 [35] was 2.07 µg/mL and 0.691 µg/mL and the TGI [35] was 5.71 µg/mL and > 10 µM. For the same compound, the GI50 [36] was 0.605 µg/mL and 0.744 µg/mL, the TGI [36] was 25.6 µg/mL and > 10 µM and the GI50 [37] was 8.7 µg/mL and 4.7 µg/mL. The TGI [37] was > 10 µM, the GI50 [38] was 2.69 µg/mL and 1.06 µg/mL and the TGI [38] was > 10 µM. The GI50 [39] was 4.22 µg/mL and 2.23 µg/mL, the GI50 [40] was 9.17 µg/mL and 6.68 µg/mL and the TGI [40] was > 10 µM. For the same compound, the GI50 [41] was 8.2 µg/mL and 29.7 µg/mL, the TGI [41] was > 10 µM and the GI50 [42] was 2.1 µg/mL and 1.04 µg/mL. The TGI [42] was 9.85 µg/mL and 25.1 µg/mL and > 10 µM, the TGI [43] was > 10 µM and the TGI [44] was > 10 µM. For the same compound, the GI50 [45] was 7.69 µg/mL (≈ 5.34 µM), the TGI [46] was > 10 µM and the GI50 [47] was 19.4 µg/mL (≈ 13.4 µM). The TGI [47] was > 10 µM, the TGI [48] was > 10 µM and the GI50 [49] was 2.17 µg/mL and 11.3 µg/mL. For the same compound, the TGI [49] was 48 µg/mL (≈ 33.3 µM), the GI50 [50] was 0.251 µg/mL (≈ 0.174 µM) and the TGI [50] was 11.1 µg/mL and > 10 µM. For the same compound, the GI50 [51] was 0.199 µg/mL and 0.171 µg/mL, the TGI [51] was > 10 µM and the TGI [52] was > 10 µM. For the same compound, the GI50 [53] was 0.324 µg/mL and 0.149 µg/mL, the TGI [53] was 3.47 µg/mL and 10.3 µg/mL and > 10 µM and the GI50 [54] was 0.0139 µg/mL (≈ 0.00962 µM). The TGI [54] was 0.287 µg/mL (≈ 0.199 µM), the GI50 [55] was 29.2 µg/mL (≈ 20.3 µM) and the TGI [55] was > 10 µM. The GI50 [56] was 8.83 µg/mL and 3.08 µg/mL, the GI50 [57] was 50.8 µg/mL (≈ 35.3 µM) and the TGI [57] was > 10 µM. For the same compound, the GI50 [58] was 0.845 µg/mL and 2.94 µg/mL, the TGI [58] was 2.38 µM and the TGI [59] was 3.45 µM. The TGI [60] was > 10 µM, the TGI [61] was > 10 µM and the GI50 [62] was 3.08 µg/mL (≈ 2.14 µM). For the same compound, the GI50 [63] was 3.15 µg/mL (≈ 2.19 µM), the TGI [63] was > 10 µM and the TGI [64] was > 10 µM. For the same compound, the GI50 [65] was 0.603 µg/mL and 0.261 µg/mL, the TGI [65] was 12 µg/mL and 4.04 µM and the GI50 [66] was 16.5 µg/mL (≈ 11.5 µM). For the same compound, the TGI [67] was > 10 µM, the GI50 [68] was 3.12 µg/mL and 2.58 µg/mL and the TGI [68] was 27.6 µg/mL and > 10 µM.
